Read-outs that look alike come from different tables or passages of the source.
Experiments:
NFkB = test: STING THP1 reporter assay, NF-κB pathway (SEAP, QUANTI-Blue); type: cell-based; conditions: THP1-Dual cells, 10% human plasma, 100% activation = 100 μM cGAMP
Source text: (§1) THP1-Dual™ cells were derived from the human THP-1 monocyte cell line by stable integration of two inducible reporter constructs. To this end, THP1-Dual™ cells allow the simultaneous study of the NF-κB pathway, by monitoring the activity of SEAP, and the IRF pathway by assessing the activity of a secreted luciferase (Lucia). Both reporter proteins are readily measurable in the cell culture supernatant when using QUANTI-Blue™, a SEAP detection reagent, and QUANTI-Luc™, a luciferase detection reagent.
(§2) THP1-Dual™ cells induce the activation of NF-κB in response to STING agonists. They also trigger the IRF pathway upon stimulation with STING agonists, such as cGAMP. Here, the THP-1-Dual cells were used to assess STING binders for function on the cellular level.
(§3) Serial dilutions of compounds in DMSO were added to low volume 384 well plates at 100 nl/well using an ECHO acoustic dispenser (Labcyte, model 550) to achieve final starting concentration of 100 μM in cell suspension. THP-1 Dual™ STING reporter cells (Invivogen, Dual cells cat # THPD-nfis) were added to the plates with compounds at 15,000 cells in 10 μL per well in RPMI media (Gibco, cat #11875) containing 10% human plasma in a low volume 384-well black wall clear bottom tissue culture plate (Corning, cat #3542) for SEAP assay and low volume solid white plate (Corning, cat #3826) for luciferase assay. One column of the plate was reserved for treatment with cGAMP at 100 μM for 100% activation calculation and one column for no treatment (DMSO only) for baseline activation. Plates were then incubated in 37° C. incubator at 5% CO2 for 20 hours.
(§4) In the SEAP assay, 5 μl of 2× QuantiBlue (Invivogen, cat # Rep-qb2) is added to 384 well black plates seeded with THP1 cells and incubated at 37° C. for 2 hours. Plates were read on the Envision (Perkin Elmer) at 620 nm wavelength (OD620). In the luciferase assay, 5 μl of Quantiluc (Invivogen, Rep-qlc2) is added to white 384 well plates seeded with THP1 cells and read at 5 minutes on the Envision (Perkin Elmer) using a luminescence protocol (RLU). For both cell lines, 100% activation was determined by value (RLU) of THP-1 Dual STING cells stimulated with 100 μM cGAMP (Invivogen, cat # TLRL-NACGA23-5).

IRF3 = test: STING THP1 reporter assay, IRF pathway (secreted luciferase Lucia, QUANTI-Luc); type: cell-based; conditions: THP1-Dual cells, 10% human plasma, 100% activation = 100 μM cGAMP, luciferase readout, read-out: THP1 Reporter Assays EC50 IRF3
Source text: as §1, §2, §3, §4

[1] = target: T1, STING WT: His-TVMV-S-hSTING(155-341)-H232R (Homo sapiens, UniProt Q86WV6, H232R); test: STING HTRF binding assay (time resolved FRET competition), STING WT; conditions: 20 nM His-tagged STING cytoplasmic domain, 200 nM fluorescein-labeled cGAMP analog probe, one hour; read-out: HTRF Binding Assays IC50 STING WT
T1 construct: His-TVMV-S-hSTING(155-341)-H232R
T1 sequence (Q86WV6 with tags, fused parts or gaps H232R): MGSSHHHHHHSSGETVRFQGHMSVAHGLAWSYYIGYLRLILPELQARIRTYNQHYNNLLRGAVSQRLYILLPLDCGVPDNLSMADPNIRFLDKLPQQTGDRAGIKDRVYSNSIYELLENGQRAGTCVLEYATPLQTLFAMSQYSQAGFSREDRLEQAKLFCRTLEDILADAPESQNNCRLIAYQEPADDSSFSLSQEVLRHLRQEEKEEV
Method: (§5) A time resolved FRET-based competition binding assay was used to assess test article binding to STING WT and STING AQ. His-tagged STING cytoplasmic domain (WT or AQ) at a concentration of 20 nM was incubated with 2.5 nM Tb-labeled anti-His antibody, test compound, and fluorescein-labeled cGAMP analog probe (BioLog cat. no. C195) at a concentration of 200 nM (STING WT) or 40 nM (STING AQ) in PBS containing 0.005% Tween-20 and 0.1% BSA for one hour. Fluorescence at 495 nm and 520 nm was measured using an EnVision microplate reader to quantify FRET between Tb-labeled anti-His antibody and fluorescein-labeled probe. Background was defined as the signal obtained in the absence of STING protein, and background subtracted FRET ratios were normalized to the maximum signal obtained in the absence of test compound. These values were converted to a percent inhibition. Percent inhibition was determined for test compounds at 11 concentrations. The IC50, defined as the concentration of competing test compound needed to reduce specific binding of the probe by 50%, was calculated using the 4 parameter logistic equation to fit the data

[2] = target: T2, STING AQ: His-TVMV-S-hSTING(155-341)-G230A-R293Q (Homo sapiens, UniProt Q86WV6, G230A/H232R/R293Q); test: STING HTRF binding assay (time resolved FRET competition), STING AQ; conditions: 20 nM His-tagged STING cytoplasmic domain, 40 nM fluorescein-labeled cGAMP analog probe, one hour; read-out: HTRF Binding Assays IC50 STING AQ
T2 construct: His-TVMV-S-hSTING(155-341)-G230A-R293Q
T2 sequence (Q86WV6 with tags, fused parts or gaps G230A/H232R/R293Q): as the sequence (Q86WV6 with tags, fused parts or gaps H232R) above, with G99A, R162Q counted along it
Method: as §5

[3] = Homo sapiens, THP-1, 20 h, SEAP readout OD620, read-out: THP1 Reporter Assays EC50 NFkB
[4] = 20 hours, SEAP readout OD620, read-out: THP1 Reporter Assays EC50 NFkB

Row | Structure (SMILES) | EC50 (NFkB; [3]) [µM] | EC50 (IRF3; Homo sapiens, THP-1, 20 h) [µM] | IC50 [1] [µM] | IC50 [2] [µM] | EC50 (NFkB; [4]) [µM] | EC50 (IRF3; 20 hours) [µM]
1 | Nc1ncnc2c1ncn2[C@@H]1C[C@@H]2COP(O)(=S)O[C@H]3[C@H](F)[C@H](n4ccc5c(Cl)ncnc54)O[C@@H]3COP(O)(=S)OC[C@H]21 (single isomer, unassigned) [Example 7-1] | > 100 | > 100 | > 100 | 32.7 | – | –
2 | NC(=O)c1cccc2c1nnn2[C@@H]1C[C@@H]2COP(O)(=S)O[C@H]3[C@@H](F)[C@H](n4cnc5c(N)ncnc54)O[C@@H]3COP(O)(=S)OC[C@H]21 (single isomer, unassigned) [Example 13-3] | – | – | > 100 | 3.8 | > 100 | > 100
3 | Nc1ncnc2c1ncn2[C@@H]1C[C@@H]2COP(O)(=S)O[C@H]3C[C@H](n4ccc5c(Cl)ncnc54)O[C@@H]3COP(=O)(S)OC[C@H]21 (single isomer, unassigned) [Example 6-1] | > 100 | > 100 | > 100 | 38.9 | – | –
4 | Nc1ncnc2c1ncn2[C@@H]1C[C@@H]2COP(O)(=S)O[C@@H]3[C@H](O)[C@@H](COP(O)(=S)OC[C@H]21)O[C@H]3n1cnc2c(O)nc3nccn3c21 (single isomer, unassigned) [Example 15-1] | > 100 | > 100 | 33.5 | 4.4 | – | –
5 | Nc1ncnc2c1ncn2[C@@H]1O[C@@H]2COP(O)(=S)OC[C@@H]3[C@@H](COP(O)(=S)O[C@H]2[C@H]1F)C[C@H]3n1cnc2c(=O)[nH]cnc21 (single isomer, unassigned) [Example 5-2] | – | – | 0.44 | 0.02 | > 100 | > 100
6 | Nc1ncnc2c1ncn2[C@@H]1C[C@@H]2COP(O)(=S)O[C@H]3[C@H](F)[C@H](n4ccc5c(Cl)ncnc54)O[C@@H]3COP(O)(=S)OC[C@H]21 (single isomer, unassigned) [Example 7-2] | – | – | > 100 | – | > 100 | > 100
7 | O=c1[nH]c2nccn2c2c1ncn2[C@@H]1O[C@@H]2COP(=O)(S)OC[C@@H]3[C@@H](COP(=O)(S)O[C@@H]1[C@@H]2O)C[C@H]3n1cnc2c(O)ncnc21 (single isomer, unassigned) [Example 14-3] | – | – | 14.3 | 1.7 | > 100 | > 100
8 | Nc1ncnc2c1ncn2[C@@H]1C[C@@H]2COP(O)(=S)O[C@H]3[C@@H](O)[C@H](n4cnc5c(O)ncnc54)O[C@@H]3COP(O)(=S)OC[C@H]21 (stereo partly drawn) [Example 16, (1S,6S,8R,9R,15R,17R,18R)-8-(6-amino-9H-purin-9-yl)-3,12,18-trihydroxy-17-(6-hydroxy-9H-purin-9-yl)-2,4,11,13,16-pentaoxa-3λ^5,12λ^5-diphosphatricyclo[13.3.0.0^6,9]octadecane-3,12-dithione] | 31 | > 100 | 17.9 | 0.23 | – | –
9 | Nc1ncnc2c1ccn2[C@@H]1O[C@@H]2COP(O)(=S)OC[C@@H]3[C@@H](COP(O)(=S)O[C@H]2[C@@H]1F)C[C@H]3n1cnc2c(N)ncnc21 (single isomer, unassigned) [Example 8-2] | – | – | 33 | > 100 | 97 | > 100
10 | NC(=O)c1cccc2c1nnn2[C@@H]1O[C@@H]2COP(O)(=S)OC[C@@H]3[C@@H](COP(O)(=S)O[C@H]2[C@H]1F)C[C@H]3n1cnc2c(N)ncnc21 (single isomer, unassigned) [Example 12-4] | – | – | 22 | 0.4 | > 100 | > 100
11 | Nc1ncnc2c1ncn2[C@@H]1C[C@@H]2COP(O)(=S)O[C@H]3[C@@H](F)[C@H](n4cnc5c(=O)[nH]c6nccn6c54)O[C@@H]3COP(O)(=S)OC[C@H]21 (single isomer, unassigned) [Example 9-3] | – | – | 9.1 | 0.35 | > 100 | > 100
12 | Nc1ncnc2c1ncn2[C@@H]1C[C@@H]2COP(=O)(S)O[C@H]3[C@@H](F)[C@H](n4cnc5c(N)ncnc54)O[C@@H]3COP(=O)(S)OC[C@H]21 (single isomer, unassigned) [Example 1-1] | – | – | 1.6 | 0.06 | > 100 | > 100
13 | NC(=O)c1cccc2c1nnn2[C@@H]1O[C@@H]2COP(O)(=S)OC[C@@H]3[C@@H](COP(O)(=S)O[C@H]2[C@H]1F)C[C@H]3n1cnc2c(N)ncnc21 (single isomer, unassigned) [Example 12-3] | – | – | > 100 | 64.4 | > 100 | > 100
14 | NC(=O)c1cccc2c1nnn2[C@@H]1O[C@@H]2COP(O)(=S)OC[C@@H]3[C@@H](COP(O)(=S)O[C@@H]1[C@@H]2F)C[C@H]3n1cnc2c(N)ncnc21 (single isomer, unassigned) [Example 11-2] | – | – | 19.4 | 1.4 | > 100 | > 100
15 | Nc1ncnc2c1ncn2[C@@H]1C[C@@H]2COP(O)(=S)O[C@H]3[C@H](F)[C@H](n4cnc5c(N)ncnc54)O[C@@H]3COP(O)(=S)OC[C@H]21 (single isomer, unassigned) [Example 17-2] | – | – | > 100 | 1.9 | > 100 | > 100
16 | NC(=O)c1cccc2c1nnn2[C@@H]1O[C@@H]2COP(O)(=S)OC[C@@H]3[C@@H](COP(O)(=S)O[C@H]2[C@H]1F)C[C@H]3n1cnc2c(N)ncnc21 (single isomer, unassigned) [Example 12-1] | > 100 | > 100 | 52.8 | 19.9 | – | –
17 | Nc1ncnc2c1ncn2[C@@H]1C[C@@H]2COP(O)(=S)O[C@H]3C[C@H](n4ccc5c(Cl)ncnc54)O[C@@H]3COP(=O)(S)OC[C@H]21 (single isomer, unassigned) [Example 6-2] | – | – | > 100 | 82.6 | – | > 100
18 | Nc1ncnc2c1ncn2[C@@H]1C[C@@H]2COP(O)(=S)O[C@H]3C[C@H](n4ccc5c(Cl)ncnc54)O[C@@H]3COP(=O)(S)OC[C@H]21 (single isomer, unassigned) [Example 6-4] | – | – | > 100 | 14.8 | – | > 100
19 | Nc1ncnc2c1ccn2[C@@H]1O[C@@H]2COP(O)(=S)OC[C@@H]3[C@@H](COP(O)(=S)O[C@H]2[C@@H]1F)C[C@H]3n1cnc2c(N)ncnc21 (single isomer, unassigned) [Example 8-1] | – | > 100 | > 100 | – | 23 | –
20 | Nc1ncnc2c1ncn2[C@@H]1C[C@@H]2COP(O)(=S)O[C@H]3C[C@H](n4ccc5c(Cl)ncnc54)O[C@@H]3COP(=O)(S)OC[C@H]21 (single isomer, unassigned) [Example 6-3] | – | – | > 100 | 31.9 | – | > 100

From patent US10744150B2, “Cyclic dinucleotides as anticancer agents” (BRISTOL-MYERS SQUIBB COMPANY, priority 2017, dated 2020)
